Laboratory results as given in patent publication US10071103B2, “Treatments for resistant acne” (VYOME BIOSCIENCES PVT. LTD., priority 2014, dated 2018).
“Also recorded” adds a separate entry of the source. Counter-ions that a name gives are not always drawn.

Assays:
IL-6 = assay: P. acnes-induced IL-6 release in THP-1 cells (ELISA); assay type: cell-based
IL-8 = assay: P. acnes-induced IL-8 release in THP-1 cells (ELISA); assay type: cell-based; settings: Example 61; besifloxacin 10, 30 μg/ml; adapalene 0.04, 0.4 μg/ml
THP-1 cells = assay: Viability of THP-1 cells under treatment; assay type: cell-based; settings: Example 61; each tested condition
[1] = pH dependent solubility of besifloxacin.HCl; assay type: physicochemical; settings: pH of about 4.5 or below solubilizes the drug
Source text: Preparation of drug-loaded (suspended form) gel via a conventional method usually leads to exposure of the drug to a wide range of pH conditions, which may lead to, in some instances, solubilization of the drug, and then reprecipitation. This solubilization-reprecipitation phenomenon in most cases leads to change in original particle size, impurity profile or crystal pattern, or others. […] The solubilized besifloxacin then, upon increase in pH (during formulation preparation), reprecipitates, which may result in one or more unwanted changes.

SMILES: N[C@@H]1CCCCN(c2c(F)cc3c(=O)c(C(=O)O)cn(C4CC4)c3c2Cl)C1 [Besifloxacin.HCl, besifloxacin hydrochloride]
- Effect on P. acnes-induced IL-6 levels (in words) (IL-6; Example 61, besifloxacin 10, 30 μg/ml, adapalene 0.04, 0.4 μg/ml, hydrochloride): significant dose-dependent decrease; also recorded: impart individual anti-inflammatory effects
- Reduction in IL-6 levels compared to untreated control (IL-6; besifloxacin.HCl alone at 10 μg/ml): approximately 40%
- Effect on P. acnes-induced IL-8 levels (in words) (IL-8): does not show similar effect
- Cell viability compared to untreated cells (THP-1 cells): over 80%
- Solubility (in words) [1]: pH dependent solubility
